Laboratory results from patent US6469027B1, “N-methyl-D-aspartate (NMDA) receptor blockers for the prevention of atherosclerosis” (The Board of Regents of the University of Nebraska, priority 1996, dated 2002).
“Also recorded” adds a separate entry of the source.

What was measured:
[1] = tested on: diacylglycerol; assay: sn-1,2-Diacylglycerol assay in VSMC; assay type: cell-based, chicken
Protocol: FIGS. 7A-7C are graphs illustrating the effect of H[cys] on diacylglycerol content in N-VSMC. (A) Time course of changes of membrane diacylglycerol content cell treated with 100μM H[cys] for the various times. Cells were recovered, membrane lipids extracted and diacylglycerol amounts determined as described in Methods. Results are expressed as the mean ± standard error of quadruplicate incubations from six independent experiments. (B) Effects of varying concentrations of H[cys] on diacylglycerol synthesis. Cells were treated for 30 min with different concentrations of H[cys] and membrane lipids were isolated and the diacylglycerol content determined. (C) Effect of PKC inhibitors on H[cys] mediated cell proliferation. N-VSMC cultures were grown in 1% FBS and 100 μM H[cys] in the presence and absence of staurosporine and cheleyrithrine chloride for the times (days-d) indicated. Cells were counted in quadruplicate in a Coulter counter every three days. Values represent the mean ±S.D. from four independent experiments.
.sn-1,2-Diacylglycerol assay: VSMC were treated with 0.01 to 100 μM H[cys] for 15-60 min. Cells were harvested and lipids were extracted by the method of Priess et al., (18). The analysis of diacylglycerol synthesis was as described previously by Wrenn et al. Wrenn, R. W. et al. (1993). […]

[2] = tested on: c-myb; assay: c-myb expression in N-VSMC (RT-PCR, immunoprecipitation and western blot); assay type: cell-based, chicken
Protocol: FIGS. 3A, 3B and 3C are RNA blot analyses of c-fos and c-myb mRNA isolated from N-VSMC cultures. Cultures were incubated in the absence and presence of 200μM H[cys] for 0, (lane 1); 15 min, (lane 2); 30 min, (lane 3); 45 min, (lane 4) and 60 min, (lane 5); and analyzed for c-fos expression. In FIG. 3B, the time course of c-myb MRNA induction in the presence of 200μM H[cys] for 0 h, (lane 1); 8 h, (lane 2); 16 h, (lane 3); 24 h, (lane 4). The c-fos transcripts were analyzed by northern blot and normalized to β actin expression. The amount of c-myb mRNA levels were normalized to estrogen receptor (ER) transcripts as determined by RT-PCR. […] The amount of c-myb mRNA levels were normalized to estrogen receptor (ER) transcripts as determined by RT-PCR. The amount of specific radiolabeling in the autoradiograph was quantified by scanning densitometry. The size of the c-Myb protein is 75 kilodaltons. The 75 kilodalton band is defined as c-Myb because immunoprecipitation of this protein was not detected in the presence of synthetic polypeptide [[…] encoded by sequences 1080-1133].
FIG. 4 is a graph illustrating the analysis of c-myb synthesis in response to NMDA receptor antagonist, Mk-801 and CGS19755. Immunoprecipitation and western blotting of radiolabeled c-Myb from N-VSMC treated with 200μMH[cys] in the presence and absence of 50 μM Mk-801 or 1 mM CGS19755. Cell cultures were treated with and without H[cys] for 24 hours, extracts were immunoprecipitated with anti c-myb IgG and samples were separated by SDS-PAGE gels and western blotted. The amount of specific radiolabeling in the autoradiograph was quantified by scanning densitometry. The size of the c-Myb protein is 75 kilodaltons. The 75 kilodalton band is defined as c-Myb because immunoprecipitation of this protein was not detected in the presence of synthetic polypeptide [I13-[…] encoded by sequences 1080-1133].
RNA Blot Analysis: Total RNA was isolated from VSMC derived from thoracic and abdominal aorta by homogenization, and lysis with guanidinium isothiocyanate was followed by phenol-chloroform extraction. Ten micrograms of total RNA per lane was separated in a 1.5% agarose-formaldehyde gel, and the RNA was transferred by capillary transfer to a 0.45 μm nylon membrane. Filters were hybridized as previously with cDNAs labeled with [^32P]deoxycytidine5′-triphosphate to specific activities of approximately 2×10^9 cpm/μg using a random prime labeling kit (Boehringer Mannheim Biochemicals, Indianapolis, Ind.). The probes included chicken c-fos, Bactin, estrogen receptor (ER) and c myb.
Reverse Transcriptase-Polymerase Chain Reaction: Reverse transcription of 4 to 10,000 nanograms (ng) of RNA using 10 picomoles (pm) of hexamer primers was performed for 90 minutes (min) at 37° C. using 200 units superscript reverse transcriptase (Gibco BRL), in 50 mM Tris, pH, 8.2, 75 Mm KC1, 3 mM MgCl2, 10 mM dithiothreitol (DTT), 1 unit/μ1 RNasin (Promega), and 1 mM each of DATP, dCTP, dGTP, and dTTP. The samples were heated at 95° C. for 5 min to terminate the reverse transcription. The resulting cDNA was treated with 1 unit of […] at 37° C. for 20 min. A 5% fraction of the cDNA was subjected to PCR using c-myb upstream (5′ggTCCTTTgAAgATgCTgCC3′) and downstream(5′[…]gAgTCCgggTTg3′) primers; estrogen receptor (ER) (5′ggACTgCCAgCTgCCgATCTT3′) and (5′CTCACgAATgTggCgCCT3′) primers; β actin (5′AAgAggTAATCCTgACCCCTgAA3′) and (5′ACCCTgACCATCAgggAgTTCA3′) primers. PCR was performed using 0.25 μM of each primer, 3 μM cDNA, 0.2 mM of each deoxynucleotide triphosphate, 75 mM KC1, 1.5 mM MgCl2 and 0.5 unit Taq polymerase (Perkin Elmer; Cetus) in 10 mM Tris-HC1, pH 8.3 with total volume of 100 μl. […] PCR products were analyzed by electrophoresis in 1.5% agarose gels stained with ethidium bromide. PCR amplifications of all target templates and controls were run in parallel or on the same sample. […]

[3] = tested on: mouse aortic smooth muscle cells; assay: 3H thymidine uptake / mitogenic effect in mouse aortic smooth muscle cells; assay type: cell-based
Protocol: The mitogenic and other effects of growth factors are exaggerated in late embryonic or fetal smooth muscle cells, and cells in the late fetal state provide a high contrast picture of their subsequent, post-natal, responses. To take advantage of this effect, late fetal C57BL/6×129 mice were obtained and aortic smooth muscle cell cultures were prepared according to the inventors' previously published methods set forth above. These cells were treated with a series of Hcy dilutions (10 μM-100 μM) as described above. […] Subsequently, the fetal mouse smooth muscle cells were treated with a number of variations of the incubation medium containing the Hcy. In no case did Hcy produce a measurable mitogenic effect. […] Aortic smooth muscle cells were obtained from mice of this strain that were 3-6 months old, and were treated with various concentrations of Hcy.

## N[C@@H](CCS)C(=O)O [homocysteine]
[1]; 30 min
  concentration at which increase in DAG membrane levels was first evident: 3 µM
[1]; treated for 15-60 min
  increase in DAG production: 3 fold
[2]; 200 μM homocysteine
  c-myb mRNA transcripts induced: 6 fold
[2]; 30 and 100 μM
  cMyb protein: dose dependent increase
[2]; neural crest derived smooth muscle cells
  c-myb induction: induced
[3]; adult C57Bl/6 mice 3-6 months old, various concentrations, listed as Hcy
  mitogenic effect: no mitogenic effect; also recorded: No mitogenic result
[3]; late fetal C57BL/6×129 mice, 10 μM-100 μM
  3H thymidine uptake: no enhancement
